Measurements as given in paper PMC4821887, “Identification of chemicals that mimic transcriptional changes associated with autism, brain aging and neurodegeneration” (Nature Communications, 2016).

Tested on: mouse cortical cultures
Experiment: RNA-seq differential expression (DESeq) against matched vehicle
Type: cell-based
Set-up: key to MeanFenamidone Bcl11b / MeanFenamidone Slc12a4 / MeanFenamidone Abca1 / MeanFenamidone Hmox1 / MeanFenamidone Il1rap / MeanFenamidone Cyba / MeanFenamidone Narf / MeanFenamidone Bnip3 / MeanFenamidone Amotl2 / MeanFenamidone Gad2 / MeanFenamidone Vsnl1 / MeanFenamidone Fam178a: DESeq mean of counts over RefSeq exons
Protocol: Figure 4 Cluster 2 chemicals alter expression of a common set of genes. […] RNA-seq was performed in quadruplicate after treating cortical cultures with fenamidone (10 μM) or pyraclostrobin (0.1 μM) for 24 h (n=3 biological replicates) and compared with matched vehicle controls using DESeq to detect differentially expressed genes, listed in Supplementary Data 4.
Cultures were treated with the non-cytotoxic dose of each chemical, by exchanging half of the original medium with chemicals at 2 × concentration in prewarmed feeding medium, on DIV 7 for 24 h in 12-well plates at a density of 5 × 10^5 cells per well. RNA was isolated using RNeasy plus mini kit (Cat. #74134, Qiagen). […]. Samples were further assessed for quality using either an Agilent Bioanalyzer 2100 or TapeStation 2200 to obtain a RIN. RIN values exceeding 7 were used for sequencing. RNA samples were used to generate and barcode complementary DNA libraries using the TruSeq RNA Library Preparation Kit at the UNC High Throughput Sequencing Facility. Pools of 24 multiplexed samples were sequenced per lane on an Illumina HiSeq 2500 using 50-bp paired-end reads.
RNA-seq reads were filtered using TagDust and aligned to the reference mouse genome (mm9) with TopHat using default parameters. Reads aligning to ribosomal RNA genes were removed. Transcript abundance was estimated by computing Reads per kilobase per million mapped reads (RPKM) using RefSeq gene models aggregated by gene symbol. For differential expression analyses, raw counts over RefSeq exons were used, and then were compared across samples using DESeq[62].

Structure (SMILES): CSC1=N[C@@](C)(c2ccccc2)C(=O)N1Nc1ccccc1 [fenamidone]
- Differentially expressed genes (DESeq) compared between the two fungicides (fenamidone 10 μM or pyraclostrobin 0.1 μM, 24 h): up- and downregulate a largely overlapping set of genes
- MeanFenamidone (DESeq mean normalized counts) (gene 2810011L19Rik, Fenamidone, 4 reps, vs matched vehicle): 45.3905
- MeanFenamidone (gene 3632451O06Rik): 64.8489
- log2FoldChange (gene 3632451O06Rik): -1.594
- MeanFenamidone (gene 4931428F04Rik): 315.322
- log2FoldChange (gene 4931428F04Rik): -1.331
- MeanFenamidone (gene 4933426M11Rik): 495.966
- log2FoldChange (gene 4933426M11Rik): 1.2253
- MeanFenamidone 9930013L23Rik (gene 9930013L23Rik, DESeq mean, 4 reps): 645.322
- log2FoldChange 9930013L23Rik (gene 9930013L23Rik, vs vehicle, 4 reps): 2.2987
- MeanFenamidone AF357359 (gene AF357359, DESeq mean, 4 reps): 31.2414
- log2FoldChange AF357359 (gene AF357359, vs vehicle, 4 reps): -2.02
- MeanFenamidone Abca1 (gene Abca1, DESeq mean, 4 reps): 1327.24
- log2FoldChange Abca1 (gene Abca1, vs vehicle, 4 reps): 1.708
- MeanFenamidone Acadl (gene Acadl, DESeq mean, 4 reps): 174.046
- log2FoldChange Acadl (gene Acadl, vs vehicle, 4 reps): 2.185
- MeanFenamidone Acadvl (gene Acadvl, DESeq mean, 4 reps): 272.079
- log2FoldChange Acadvl (gene Acadvl, vs vehicle, 4 reps): 1.576
- MeanFenamidone Acsbg1 (gene Acsbg1, DESeq mean, 4 reps): 241.134
- log2FoldChange Acsbg1 (gene Acsbg1, vs vehicle, 4 reps): 1.737
- MeanFenamidone Acta2 (gene Acta2, DESeq mean, 4 reps): 2838.59
- log2FoldChange Acta2 (gene Acta2, vs vehicle, 4 reps): 3.4285
- MeanFenamidone Actn1 (gene Actn1, DESeq mean, 4 reps): 711.955
- log2FoldChange Actn1 (gene Actn1, vs vehicle, 4 reps): 2.284
- MeanFenamidone Adamts5 (gene Adamts5, DESeq mean, 4 reps): 85.7871
- log2FoldChange Adamts5 (gene Adamts5, vs vehicle, 4 reps): 2.142
- MeanFenamidone Adarb2 (gene Adarb2, DESeq mean, 4 reps): 8.295
- log2FoldChange Adarb2 (gene Adarb2, vs vehicle, 4 reps): -3.192
- MeanFenamidone Agap2 (gene Agap2, DESeq mean, 4 reps): 683.65
- log2FoldChange Agap2 (gene Agap2, vs vehicle, 4 reps): -1.416
- MeanFenamidone Ahnak (gene Ahnak, DESeq mean, 4 reps): 1224
- log2FoldChange Ahnak (gene Ahnak, vs vehicle, 4 reps): 2.684
- MeanFenamidone Ajuba (gene Ajuba, DESeq mean, 4 reps): 246.575
- log2FoldChange Ajuba (gene Ajuba, vs vehicle, 4 reps): 2.23
- MeanFenamidone (gene Akap2): 757.95
- log2FoldChange (gene Akap2): 1.126
- MeanFenamidone Aldh4a1 (gene Aldh4a1, DESeq mean, 4 reps): 305.431
- log2FoldChange Aldh4a1 (gene Aldh4a1, vs vehicle, 4 reps): 1.584
- MeanFenamidone Amotl1 (gene Amotl1, DESeq mean, 4 reps): 463.485
- log2FoldChange Amotl1 (gene Amotl1, vs vehicle, 4 reps): 1.802
- MeanFenamidone Amotl2 (gene Amotl2, DESeq mean, 4 reps): 666.038
- log2FoldChange Amotl2 (gene Amotl2, vs vehicle, 4 reps): 1.759
- MeanFenamidone (gene Anxa2): 244.58
- log2FoldChange (gene Anxa2): 2.151
- MeanFenamidone Anxa3 (gene Anxa3, DESeq mean, 4 reps): 244.534
- log2FoldChange Anxa3 (gene Anxa3, vs vehicle, 4 reps): 3.475
- MeanFenamidone Arhgap18 (gene Arhgap18, DESeq mean, 4 reps): 128.165
- log2FoldChange Arhgap18 (gene Arhgap18, vs vehicle, 4 reps): 1.989
- MeanFenamidone (gene Arhgdig): 118.591
- log2FoldChange (gene Arhgdig): -1.355
- MeanFenamidone (gene Arhgef40): 160.321
- log2FoldChange (gene Arhgef40): 1.457
- MeanFenamidone Asah1 (gene Asah1, DESeq mean, 4 reps): 348.017
- log2FoldChange Asah1 (gene Asah1, vs vehicle, 4 reps): 1.772
- MeanFenamidone Ass1 (gene Ass1, DESeq mean, 4 reps): 83.2354
- log2FoldChange Ass1 (gene Ass1, vs vehicle, 4 reps): 3.013
- MeanFenamidone Atf3 (gene Atf3, DESeq mean, 4 reps): 64.246
- log2FoldChange Atf3 (gene Atf3, vs vehicle, 4 reps): 2.3746
- MeanFenamidone Atf5 (gene Atf5, DESeq mean, 4 reps): 765.032
- log2FoldChange Atf5 (gene Atf5, vs vehicle, 4 reps): 1.876
- MeanFenamidone Atl1 (gene Atl1, DESeq mean, 4 reps): 97.9838
- log2FoldChange Atl1 (gene Atl1, vs vehicle, 4 reps): -1.537
- MeanFenamidone Axl (gene Axl, DESeq mean, 4 reps): 322.064
- log2FoldChange Axl (gene Axl, vs vehicle, 4 reps): 2.208
- MeanFenamidone (gene Bak1): 236.594
- log2FoldChange (gene Bak1): 1.306
- MeanFenamidone Bcl11b (gene Bcl11b, DESeq mean, 4 reps): 202.325
- log2FoldChange Bcl11b (gene Bcl11b, vs vehicle, 4 reps): -1.501
- MeanFenamidone Bhlhe41 (gene Bhlhe41, DESeq mean, 4 reps): 115.206
- log2FoldChange Bhlhe41 (gene Bhlhe41, vs vehicle, 4 reps): 2.168
- MeanFenamidone (gene Bmp1): 153.886
- log2FoldChange (gene Bmp1): 1.3853
- MeanFenamidone Bnip3 (gene Bnip3, DESeq mean, 4 reps): 102.453
- log2FoldChange Bnip3 (gene Bnip3, vs vehicle, 4 reps): -1.924
- MeanFenamidone (gene Bnip3l): 236.54
- log2FoldChange (gene Bnip3l): -1.119
- MeanFenamidone (gene Bsn): 443.744
- log2FoldChange (gene Bsn): -1.148
- MeanFenamidone (gene Cad): 202.997
- log2FoldChange (gene Cad): 1.187
- MeanFenamidone (gene Cadps): 260.197
- log2FoldChange (gene Cadps): -1.6246
- MeanFenamidone Cald1 (gene Cald1, DESeq mean, 4 reps): 1843.23
- log2FoldChange Cald1 (gene Cald1, vs vehicle, 4 reps): 1.947
- MeanFenamidone (gene Calm2): 809.868
- log2FoldChange (gene Calm2): -1.097
- MeanFenamidone Camk2a (gene Camk2a, DESeq mean, 4 reps): 319.844
- log2FoldChange Camk2a (gene Camk2a, vs vehicle, 4 reps): -1.451
- MeanFenamidone (gene Camk2n1): 296.66
- log2FoldChange (gene Camk2n1): -1.023
- MeanFenamidone Camk4 (gene Camk4, DESeq mean, 4 reps): 490.278
- log2FoldChange Camk4 (gene Camk4, vs vehicle, 4 reps): -1.593
- MeanFenamidone Camta1 (gene Camta1, DESeq mean, 4 reps): 338.624
- log2FoldChange Camta1 (gene Camta1, vs vehicle, 4 reps): -1.578
- MeanFenamidone Caskin2 (gene Caskin2, DESeq mean, 4 reps): 130.097
- log2FoldChange Caskin2 (gene Caskin2, vs vehicle, 4 reps): 2.297
- MeanFenamidone Ccdc141 (gene Ccdc141, DESeq mean, 4 reps): 72.7622
- log2FoldChange Ccdc141 (gene Ccdc141, vs vehicle, 4 reps): 2.666
- MeanFenamidone Ccnd3 (gene Ccnd3, DESeq mean, 4 reps): 321.074
- log2FoldChange Ccnd3 (gene Ccnd3, vs vehicle, 4 reps): 1.783
- MeanFenamidone Ccng1 (gene Ccng1, DESeq mean, 4 reps): 4010.45
- log2FoldChange Ccng1 (gene Ccng1, vs vehicle, 4 reps): 1.5262
- MeanFenamidone Cd63 (gene Cd63, DESeq mean, 4 reps): 136.407
- log2FoldChange Cd63 (gene Cd63, vs vehicle, 4 reps): 2.342
- MeanFenamidone Cd68 (gene Cd68, DESeq mean, 4 reps): 127.152
- log2FoldChange Cd68 (gene Cd68, vs vehicle, 4 reps): 2.839
- MeanFenamidone Cd151 (gene Cd151, DESeq mean, 4 reps): 686.042
- log2FoldChange Cd151 (gene Cd151, vs vehicle, 4 reps): 1.998
- MeanFenamidone Cdc42ep1 (gene Cdc42ep1, DESeq mean, 4 reps): 242.014
- log2FoldChange Cdc42ep1 (gene Cdc42ep1, vs vehicle, 4 reps): 2.019
- MeanFenamidone Cdkl2 (gene Cdkl2, DESeq mean, 4 reps): 148.718
- log2FoldChange Cdkl2 (gene Cdkl2, vs vehicle, 4 reps): -1.498
- MeanFenamidone Cdkn1a (gene Cdkn1a, DESeq mean, 4 reps): 1626.53
- log2FoldChange Cdkn1a (gene Cdkn1a, vs vehicle, 4 reps): 1.6849
- MeanFenamidone (gene Cercam): 80.354
- log2FoldChange (gene Cercam): 1.731
- MeanFenamidone (gene Chga): 168.446
- log2FoldChange (gene Chga): -1.21
- MeanFenamidone (gene Chl1): 1683.83
- log2FoldChange (gene Chl1): -1.224
- MeanFenamidone (gene Ckb): 1311.75
- log2FoldChange (gene Ckb): 1.6
- MeanFenamidone (gene Clec7a): 31.0423
- log2FoldChange (gene Clec7a): 2.927
- MeanFenamidone Cln5 (gene Cln5, DESeq mean, 4 reps): 194.081
- log2FoldChange Cln5 (gene Cln5, vs vehicle, 4 reps): 2.017
- MeanFenamidone Cnr1 (gene Cnr1, DESeq mean, 4 reps): 426.988
- log2FoldChange Cnr1 (gene Cnr1, vs vehicle, 4 reps): -1.344
- MeanFenamidone Col4a5 (gene Col4a5, DESeq mean, 4 reps): 502.413
- log2FoldChange Col4a5 (gene Col4a5, vs vehicle, 4 reps): 2.312
- MeanFenamidone (gene Col4a6): 110.458
- log2FoldChange (gene Col4a6): 2.156
- MeanFenamidone Col12a1 (gene Col12a1, DESeq mean, 4 reps): 444.559
- log2FoldChange Col12a1 (gene Col12a1, vs vehicle, 4 reps): 2.385
- MeanFenamidone Cpeb1 (gene Cpeb1, DESeq mean, 4 reps): 116.043
- log2FoldChange Cpeb1 (gene Cpeb1, vs vehicle, 4 reps): 2.171
- MeanFenamidone Csf1 (gene Csf1, DESeq mean, 4 reps): 1349.7
- log2FoldChange Csf1 (gene Csf1, vs vehicle, 4 reps): 2.395
- MeanFenamidone Csrnp3 (gene Csrnp3, DESeq mean, 4 reps): 419.96
- log2FoldChange Csrnp3 (gene Csrnp3, vs vehicle, 4 reps): -1.31
- MeanFenamidone Ctnna1 (gene Ctnna1, DESeq mean, 4 reps): 850.825
- log2FoldChange Ctnna1 (gene Ctnna1, vs vehicle, 4 reps): 1.929
- MeanFenamidone Ctsd (gene Ctsd, DESeq mean, 4 reps): 3727.98
- log2FoldChange Ctsd (gene Ctsd, vs vehicle, 4 reps): 1.609
- MeanFenamidone Ctsl (gene Ctsl, DESeq mean, 4 reps): 1179.87
- log2FoldChange Ctsl (gene Ctsl, vs vehicle, 4 reps): 1.543
- MeanFenamidone Cyba (gene Cyba, DESeq mean, 4 reps): 37.6864
- log2FoldChange Cyba (gene Cyba, vs vehicle, 4 reps): 3.26
- MeanFenamidone Cyr61 (gene Cyr61, DESeq mean, 4 reps): 1421.12
- log2FoldChange Cyr61 (gene Cyr61, vs vehicle, 4 reps): 2.66
- MeanFenamidone D130043K22Rik (gene D130043K22Rik, DESeq mean, 4 reps): 33.8314
- log2FoldChange D130043K22Rik (gene D130043K22Rik, vs vehicle, 4 reps): -1.82
- MeanFenamidone Daam2 (gene Daam2, DESeq mean, 4 reps): 263.262
- log2FoldChange Daam2 (gene Daam2, vs vehicle, 4 reps): 1.9757
- MeanFenamidone (gene Darc): 104.469
- log2FoldChange (gene Darc): -1.472
